In test [1] the target is T1, full length recombinant Pim-1 protein (Homo sapiens, UniProt P11309).
T1 construct: by full length recombinant Pim-1, Pim-2, or Pim-3 protein; hexahistidine tag followed by a thrombin cleavage site (N); made in house; host or cells: Sf9 (baculovirus) or E. coli (pET28)
In words: Pim-1 enzyme assay (HTRF, phosphorylation of biotinylated-BAD (S112) peptide). Type of test: biochemical. The conditions noted are these: enzyme assay, Pim-1; read-out: Pim_1_IC50. An outline of the steps:
(§1)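 Recombinant full-length Pim-1 or Pim-2 was incubated with biotinylated BAD (S112) peptide in pH 7.0 Hepes buffer with BSA and DTT. After an EDTA stop, phosphopeptide was quantified by time-resolved FRET between a europium antibody and streptavidin-APC, and IC50 values came from 4-parameter logistic curves.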
In general terms: TR-FRET usually uses a lanthanide donor and a delayed reading to cut background.

In test [2] the target is T2, Pim-2 stably transfected into the U2OS human osteogenic sarcoma line (Homo sapiens, UniProt Q9P1W9).
T2 construct: expressed in transfected cells; host or cells: U2OS human osteogenic sarcoma line
In words: Pim cell assay, phospho-BAD normalized against total BAD, U2OS stably transfected with Pim-2. Further: high dose 31.6 µM. The following applies: U2OS cells stably transfected with Pim-2, phospho-BAD; high dose […]; read-out: Pim2_Cell_IC50. The test is classed as cell-based. An outline of the steps:
(§2)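 Read-out is phospho-BAD relative to total BAD, by MSD electrochemiluminescence on lysates, expressed as % phosphoprotein = (2×phospho)/(phospho+total)×100. Engineered U2OS lines carrying stably transfected Pim-1 or Pim-2 received 10-point compound dilutions at 0.3% final DMSO after overnight culture at 37 °C; DMSO-only wells served as high control.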

For test [3], the target named is T3, Pim-1 stably transfected into the U2OS human osteogenic sarcoma line (Homo sapiens, UniProt P11309).
T3 construct: expressed in transfected cells; host or cells: U2OS human osteogenic sarcoma line
As to the kind of experiment: Pim cell assay, phospho-BAD normalized against total BAD, U2OS stably transfected with Pim-1. The test is classed as cell-based. The following applies: U2OS cells stably transfected with Pim-1, phospho-BAD; high dose […]; read-out: Pim1_Cell_IC50. An outline of the steps:
as §2

For test [4], the target named is T4, full length recombinant Pim-2 protein (Homo sapiens, UniProt Q9P1W9).
T4 construct: by full length recombinant Pim-1, Pim-2, or Pim-3 protein; hexahistidine tag followed by a thrombin cleavage site (N); made in house; host or cells: Sf9 (baculovirus) or E. coli (pET28)
In words: Pim-2 enzyme assay (HTRF, phosphorylation of biotinylated-BAD (S112) peptide). Type of test: biochemical. The following applies: enzyme assay, Pim-2; read-out: Pim2_IC50. In short, it runs like this:
as §1

Test [5] concerns the target T5, full length recombinant Pim-3 protein (Homo sapiens, UniProt Q86V86).
T5 construct: by full length recombinant Pim-1, Pim-2, or Pim-3 protein; purchased Millipore (UK)
As to the kind of experiment: Pim-3 enzyme assay (HTRF, phosphorylation of biotinylated-BAD (S112) peptide). Type of test: biochemical. The conditions noted are these: read-out: Pim3 IC50. In short, it runs like this: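 HTRF read-out, streptavidin-APC plus Eu-labelled anti-phospho-BAD (S112) antibody, measures BAD peptide phosphorylation by full-length recombinant Pim-3. Buffer: 60 mM Hepes pH 7.0, 2 mM DTT, 0.05% BSA; EDTA (3 mM) stop. Percent of control per well, IC50 by 4-parameter logistic fit.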

Molecules are shown by their SMILES.

T4 sequence (Q9P1W9 whole entry): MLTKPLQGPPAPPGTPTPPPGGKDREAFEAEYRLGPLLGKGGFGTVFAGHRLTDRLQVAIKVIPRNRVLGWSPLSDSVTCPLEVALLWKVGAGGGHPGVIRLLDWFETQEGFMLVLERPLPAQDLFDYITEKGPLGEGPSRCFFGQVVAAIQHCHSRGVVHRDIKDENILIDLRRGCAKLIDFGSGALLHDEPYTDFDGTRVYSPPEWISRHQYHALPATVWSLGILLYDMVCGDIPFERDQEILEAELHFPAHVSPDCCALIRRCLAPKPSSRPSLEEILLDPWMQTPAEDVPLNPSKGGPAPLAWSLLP
T2 sequence (Q9P1W9 whole entry): as above
T3 sequence (P11309 whole entry): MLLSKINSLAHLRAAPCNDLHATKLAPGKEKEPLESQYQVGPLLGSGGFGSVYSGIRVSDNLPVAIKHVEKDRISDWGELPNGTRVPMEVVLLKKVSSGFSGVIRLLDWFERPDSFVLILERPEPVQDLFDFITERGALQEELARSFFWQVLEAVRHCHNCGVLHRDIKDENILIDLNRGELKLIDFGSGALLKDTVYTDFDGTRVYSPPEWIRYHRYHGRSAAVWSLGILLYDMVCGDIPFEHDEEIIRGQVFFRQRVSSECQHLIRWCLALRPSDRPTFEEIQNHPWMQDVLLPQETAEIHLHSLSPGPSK
T1 sequence (P11309 whole entry): as above

Consider `FC(F)(F)c1cccc(-c2ccc3[nH]nc(-c4cncc(O[C@@H]5CCCNC5)n4)c3c2)n1` [Example 142, 3-(6-((3R)-3-piperidinyloxy)-2-pyrazinyl)-5-(6-(trifluoromethyl)-2-pyridinyl)-1H-indazole], for which the IC50 in test [1] was 19 nM; in test [2], > 31600 nM; in test [3], 625 nM; in test [4] it was 87 nM; in test [5], 6 nM.

`CC(C)Oc1cc(-c2ccc3[nH]nc(-c4cncc(O[C@@H]5CCCNC5)n4)c3c2)ccn1` [Example 143, 5-(2-(1-methylethoxy)-4-pyridinyl)-3-(6-((3R)-3-piperidinyloxy)-2-pyrazinyl)-1H-indazole]: the IC50 was 5 nM in test [1]; > 31600 nM in test [2]; 873 nM in test [3]; 34 nM in test [4]; 25 nM in test [5].

Regarding `c1cc2[nH]nc(-c3cncc(O[C@@H]4CCCNC4)n3)c2cc1-c1cncc(NC2CC2)n1` [Example 158, N-cyclopropyl-6-(3-(6-((3R)-3-piperidinyloxy)-2-pyrazinyl)-1H-indazol-5-yl)-2-pyrazinamine], the IC50 in test [1] is 1 nM; in test [2] it was > 15800 nM; in test [3] it was 36 nM; in test [4] it was 121 nM; in test [5], 1 nM.

Turning to `O[C@H]1CCCN(c2cncc(-c3n[nH]c4ccc(-c5c(F)cccc5F)cc34)n2)C1` [Example 163, (3S)-1-(6-(5-(2,6-difluorophenyl)-1H-indazol-3-yl)-2-pyrazinyl)-3-piperidinol], the IC50 in test [1] is 58 nM; in test [2], > 31600 nM; in test [3], 1630 nM; in test [4], 969 nM; in test [5], 49 nM.

As for `CN(c1cncc(-c2n[nH]c3ccc(-c4c(F)cccc4F)cc23)n1)C1CCCNC1` (centres unmarked) [Example 178, 6-(5-(2,6-difluorophenyl)-1H-indazol-3-yl)-N-methyl-N-3-piperidinyl-2-pyrazinamine], the IC50 in test [1] turned out to be 6 nM; in test [2], 14300 nM; in test [3], 582 nM; in test [4], 61 nM; in test [5], 6 nM.

Take `CCNc1cncc(-c2n[nH]c3ccc(-c4c(F)cccc4F)cc23)n1` [Example 180, 6-(5-(2,6-difluorophenyl)-1H-indazol-3-yl)-N-ethyl-2-pyrazinamine]: the IC50 is 76 nM in test [1]; > 31600 nM in test [2]; 2130 nM in test [3]; 643 nM in test [4]; 81 nM in test [5].

Take `CC(C)Nc1cncc(-c2n[nH]c3ccc(-c4c(F)cccc4F)cc23)n1` [Example 182, 6-(5-(2,6-difluorophenyl)-1H-indazol-3-yl)-N-(1-methylethyl)-2-pyrazinamine]: the IC50 is 40 nM in test [1]; > 31600 nM in test [2]; 2460 nM in test [3]; 556 nM in test [4]; 49 nM in test [5].

Consider `CC(C)(C)Nc1cncc(-c2n[nH]c3ccc(-c4c(F)cccc4F)cc23)n1` [Example 183, N-tert-butyl-6-(5-(2,6-difluorophenyl)-1H-indazol-3-yl)-2-pyrazinamine], for which the IC50 in test [1] was 44 nM; in test [2], > 31600 nM; in test [3], 4260 nM; in test [4], 679 nM; in test [5], 44 nM.

Consider `Fc1cccc(F)c1-c1ccc2[nH]nc(-c3cncc(Nc4ccccc4)n3)c2c1` [Example 184, 6-(5-(2,6-difluorophenyl)-1H-indazol-3-yl)-N-phenyl-2-pyrazinamine], for which the IC50 in test [1] is 139 nM; in test [2], > 31600 nM; in test [3], > 31600 nM; in test [4] it was 1040 nM; in test [5], 233 nM.

`Fc1cccc(F)c1-c1ccc2[nH]nc(-c3cncc(OC4CCNC4)n3)c2c1` (centres unmarked) [Example 187, 5-(2,6-difluorophenyl)-3-(6-(3-pyrrolidinyloxy)-2-pyrazinyl)-1H-indazole]: the IC50 in test [1] was determined as 50 nM; in test [2], 24200 nM; in test [3] it was 1830 nM; in test [4], 131 nM; in test [5], 22 nM.

The values above are taken from patent publication US9090593B2, “Bicyclic compounds as Pim inhibitors” (AMGEN INC., priority 2010, dated 2015).
